In this experiment the target is T1, GPR120 (Homo sapiens, UniProt Q5NUL3).
T1 construct: expressed in transfected cells; host or cells: CHO mitoPhotinaGPR120 cells
T1 sequence (Q5NUL3 1-361): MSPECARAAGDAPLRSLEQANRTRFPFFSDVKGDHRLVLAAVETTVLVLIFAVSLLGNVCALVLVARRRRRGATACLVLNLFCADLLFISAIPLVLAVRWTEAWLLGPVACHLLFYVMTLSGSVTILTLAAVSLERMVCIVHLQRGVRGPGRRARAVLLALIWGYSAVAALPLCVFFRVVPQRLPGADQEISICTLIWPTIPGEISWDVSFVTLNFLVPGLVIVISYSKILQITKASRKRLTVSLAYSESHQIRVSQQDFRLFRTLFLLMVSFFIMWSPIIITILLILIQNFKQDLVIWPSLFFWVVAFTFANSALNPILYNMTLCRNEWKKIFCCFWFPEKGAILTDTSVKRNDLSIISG
The experiment is described as follows: GPR120 agonism in CHO mitoPhotinaGPR120 cell based assay with fluorescent (Fluo-8 calcium, FLIPRTetra) readout, Agonist Mode, dose response. As to conditions: CHO mitoPhotinaGPR120 cells, Fluo-8 No Wash Ca2+ dye, dose response in quadruplicate, 0.0033% fatty acid free BSA. On the procedure: Compounds of the invention were tested for GPR120 agonism in a CHO mitoPhotinaGPR120 cell based assay with fluorescent readout in Agonist Mode in dose response in quadruplicate with intra-plate modality.
Twenty (20) h after seeding, growth medium was manually removed and cells were starved in the presence of 25 μL/w of Standard Tyrode's Buffer. After 3 h, cells were loaded with 20 μL/w of 0.5× Fluo-8 No Wash (AAT Bioquest, Inc.) Ca2+ sensitive dye prepared in Standard Tyrode's Buffer. Cells were incubated for 1 h at room temperature in the dark. Ten (10) μL/w 3× of controls and compounds were diluted in Standard Tyrode's Buffer+0.01% fatty acid free BSA (final concentration=0.0033%) and injected at the FLIPRTetra®, recording the kinetic calcium traces for 3 minutes. Standard Tyrode's buffer composition: 5 mM KCl, 130 mM NaCl, 2 mM CaCl2), 5 mM NaHCO3, 1 mM MgCl2, 20 mM HEPES, pH7.4.

For the molecule `COCc1ccc(OCc2c(C#N)c(C)nn2-c2ccccc2)cc1` [Example 55, 5-[[4-(methoxymethyl)phenoxy]methyl]-3-methyl-1-phenyl-pyrazole-4-carbonitrile], the concentration for a half-maximal effect (EC50) (usually the midpoint of the concentration-response curve) came to 2.03 µM.
With `COCCc1ccc(OCc2c(C#N)c(C)nn2-c2ccccc2)cc1` [Example 56, 5-[[4-(2-methoxyethyl)phenoxy]methyl]-3-methyl-1-phenyl-pyrazole-4-carbonitrile], the EC50 is 5 µM.
Take `Cc1nn(-c2ccccc2)c(CSc2ccc(CCO)cc2)c1C#N` [Example 59, 5-[[4-(2-hydroxyethyl)phenyl]sulfanylmethyl]-3-methyl-1-phenyl-pyrazole-4-carbonitrile]: the half-maximal effective concentration (EC50) was determined as 2.63 µM.
To `Cc1nn(-c2ccccc2)c(COc2ccc3n[nH]cc3c2)c1C#N` [Example 61, 5-(2~{H}-indazol-5-yloxymethyl)-3-methyl-1-phenyl-pyrazole-4-carbonitrile] belongs 1.02 µM.
As to `Cc1nn(-c2ccccc2)c(COc2ccc3ccncc3c2)c1C#N` [Example 62, 5-(7-isoquinolyloxymethyl)-3-methyl-1-phenyl-pyrazole-4-carbonitrile], the EC50 is 2.6 µM.
As to `Cc1nn(-c2ccccc2)c(COc2cccc3cccnc23)c1C#N` [Example 63, 3-methyl-1-phenyl-5-(8-quinolyloxymethyl)pyrazole-4-carbonitrile], the EC50 is 16.4 µM.
To `Cc1nn(-c2ccccc2)c(COc2cccnc2C#N)c1C#N` [Example 64, 3-[(4-cyano-5-methyl-2-phenyl-pyrazol-3-yl)methoxy]pyridine-2-carbonitrile] belongs 19.1 µM; to `Cc1nn(-c2ccccc2)c(COc2cccnc2F)c1C#N` [Example 65, 5-[(2-fluoro-3-pyridyl)oxymethyl]-3-methyl-1-phenyl-pyrazole-4-carbonitrile], 3.56 µM; to `Cc1ccncc1OCc1c(C#N)c(C)nn1-c1ccccc1` [Example 68, 3-methyl-5-[(4-methyl-3-pyridyl)oxymethyl]-1-phenyl-pyrazole-4-carbonitrile], 8.32 µM.
With `Cc1ccc(OCc2c(C#N)c(C)nn2-c2ccccc2)cn1` [Example 69, 3-methyl-5-[(6-methyl-3-pyridyl)oxymethyl]-1-phenyl-pyrazole-4-carbonitrile] the figure was 9.82 µM.
With `Cc1ccnc(C)c1OCc1c(C#N)c(C)nn1-c1ccccc1` [Example 70, 5-[(2,4-dimethyl-3-pyridyl)oxymethyl]-3-methyl-1-phenyl-pyrazole-4-carbonitrile] the figure was 2.3 µM; with `Cc1nn(-c2ccccc2)c(COc2ccc(F)nc2F)c1C#N` [Example 71, 5-[(2,6-difluoro-3-pyridyl)oxymethyl]-3-methyl-1-phenyl-pyrazole-4-carbonitrile], 5.69 µM; with `Cc1cccc(-n2nc(C)c(C#N)c2COc2ccc(CCO)cc2)c1` [Example 73, 5-[[4-(2-hydroxyethyl)phenoxy]methyl]-3-methyl-1-(m-tolyl)pyrazole-4-carbonitrile], 1.98 µM.
For `Cc1ccc(-n2nc(C)c(C#N)c2COc2ccc(CCO)cc2)cc1` [Example 74, 5-[[4-(2-hydroxyethyl)phenoxy]methyl]-3-methyl-1-(p-tolyl)pyrazole-4-carbonitrile], the EC50 came to 0.49 µM.
To `Cc1nn(-c2cccc(Cl)c2)c(COc2ccc(CCO)cc2)c1C#N` [Example 75, 1-(3-chlorophenyl)-5-[[4-(2-hydroxyethyl)phenoxy]methyl]-3-methyl-pyrazole-4-carbonitrile] belongs 4.61 µM.
As for `Cc1nn(-c2ccc(Cl)cc2)c(COc2ccc(CCO)cc2)c1C#N` [Example 76, 1-(4-chlorophenyl)-5-[[4-(2-hydroxyethyl)phenoxy]methyl]-3-methyl-pyrazole-4-carbonitrile], the EC50 is 0.76 µM.
For `Cc1nn(-c2cccc(C(F)(F)F)c2)c(COc2ccc(CCO)cc2)c1C#N` [Example 77, 5-[[4-(2-hydroxyethyl)phenoxy]methyl]-3-methyl-1-[3-(trifluoromethyl)phenyl]pyrazole-4-carbonitrile], the EC50 stood at 9.03 µM.
To `CCc1ccc(-n2nc(C)c(C#N)c2COc2ccc(CCO)cc2)cc1` [Example 78, 1-(4-ethylphenyl)-5-[[4-(2-hydroxyethyl)phenoxy]methyl]-3-methyl-pyrazole-4-carbonitrile] belongs 0.38 µM; to `COc1cccc(-n2nc(C)c(C#N)c2COc2ccc(CCO)cc2)c1` [Example 79, 5-[[4-(2-hydroxyethyl)phenoxy]methyl]-1-(3-methoxyphenyl)-3-methyl-pyrazole-4-carbonitrile], 1.64 µM.
For the molecule `COc1ccc(-n2nc(C)c(C#N)c2COc2ccc(CCO)cc2)cc1` [Example 80, 5-[[4-(2-hydroxyethyl)phenoxy]methyl]-1-(4-methoxyphenyl)-3-methyl-pyrazole-4-carbonitrile], the EC50 was 0.64 µM.
To `Cc1nn(-c2ccccc2F)c(COc2ccc(CCO)cc2)c1C#N` [Example 82, 1-(2-fluorophenyl)-5-[[4-(2-hydroxyethyl)phenoxy]methyl]-3-methyl-pyrazole-4-carbonitrile] belongs 3.41 µM; to `Cc1nn(-c2ccc(F)cc2)c(COc2ccccc2)c1C#N` [Example 83, 1-(4-fluorophenyl)-3-methyl-5-(phenoxymethyl)pyrazole-4-carbonitrile], 2.22 µM.
In the case of `Cc1nn(-c2ccc(F)cc2)c(COc2ccc(CCO)cc2)c1C#N` [Example 84, 1-(4-fluorophenyl)-5-[[4-(2-hydroxyethyl)phenoxy]methyl]-3-methyl-pyrazole-4-carbonitrile], the concentration for a half-maximal effect (EC50) worked out at 1.54 µM.
In the case of `Cc1nn(-c2ccc(F)cc2)c(COc2cccc(F)c2)c1C#N` [Example 85, 5-[(3-fluorophenoxy)methyl]-1-(4-fluorophenyl)-3-methyl-pyrazole-4-carbonitrile], the EC50 worked out at 4.55 µM.
To `Cc1ccccc1OCc1c(C#N)c(C)nn1-c1ccc(F)cc1` [Example 86, 1-(4-fluorophenyl)-3-methyl-5-[(2-methylphenoxy)methyl]pyrazole-4-carbonitrile] belongs 1.58 µM.
As for `Cc1nn(-c2ccc(F)cc2)c(COc2ccc(CCCO)cc2)c1C#N` [Example 87, 1-(4-fluorophenyl)-5-[[4-(3-hydroxypropyl)phenoxy]methyl]-3-methyl-pyrazole-4-carbonitrile], the EC50 stood at 0.18 µM.
With `Cc1nn(Cc2ccccc2)c(COc2ccc(CCO)cc2)c1C#N` [Example 88, 1-benzyl-5-[[4-(2-hydroxyethyl)phenoxy]methyl]-3-methyl-pyrazole-4-carbonitrile] the figure was 11.2 µM.
Regarding `Cc1nn(Cc2ccccc2)c(COc2ccc(CCCO)cc2)c1C#N` [Example 89, 1-benzyl-5-[[4-(3-hydroxypropyl)phenoxy]methyl]-3-methyl-pyrazole-4-carbonitrile], the EC50 is 0.99 µM.
With `Cc1nn(Cc2ccccc2)c(COc2c(F)cc(CCCO)cc2F)c1C#N` [Example 90, 1-benzyl-5-[[2,6-difluoro-4-(3-hydroxypropyl)phenoxy]methyl]-3-methyl-pyrazole-4-carbonitrile] the figure was 0.31 µM; with `COc1ccc(Cn2nc(C)c(C#N)c2COc2ccc(CCO)cc2)cc1` [Example 91, 5-[[4-(2-hydroxyethyl)phenoxy]methyl]-1-[(4-methoxyphenyl)methyl]-3-methyl-pyrazole-4-carbonitrile], 16.5 µM.
With `Cc1nn(-c2ccccc2)c(C(C)Oc2ccc(CCO)cc2)c1C#N` (stereo not drawn) [Example 92, 5-[1-[4-(2-hydroxyethyl)phenoxy]ethyl]-3-methyl-1-phenyl-pyrazole-4-carbonitrile], the EC50 stood at 3.66 µM.
With `Cc1nn(-c2ccccc2)c(C(C)Oc2c(F)cc(CCCO)cc2F)c1C#N` (stereo not drawn) [Example 93, 5-[1-[2,6-difluoro-4-(3-hydroxypropyl)phenoxy]ethyl]-3-methyl-1-phenyl-pyrazole-4-carbonitrile] the figure was 0.33 µM; with `Cc1nn(-c2ccccc2)c(C(F)(F)Oc2ccc(CCO)cc2)c1C#N` [Example 94, 5-[difluoro-[4-(2-hydroxyethyl)phenoxy]methyl]-3-methyl-1-phenyl-pyrazole-4-carbonitrile], 1.35 µM; with `Cc1nn(-c2ccccc2)c(C(F)(F)Oc2ccc(CCCO)cc2)c1C#N` [Example 95, 5-[difluoro-[4-(3-hydroxypropyl)phenoxy]methyl]-3-methyl-1-phenyl-pyrazole-4-carbonitrile], 0.83 µM.
As to `Cc1nn(-c2ccccc2)c(C(F)(F)Oc2c(F)cc(CCCO)cc2F)c1C#N` [Example 96, 5-[[2,6-difluoro-4-(3-hydroxypropyl)phenoxy]-difluoro-methyl]-3-methyl-1-phenyl-pyrazole-4-carbonitrile], the EC50 turned out to be 0.52 µM.
As to `Cc1nn(-c2ccccc2)c(COCc2ccc(C#N)cc2)c1C#N` [Example 97, 5-[(4-cyanophenyl)methoxymethyl]-3-methyl-1-phenyl-pyrazole-4-carbonitrile], the EC50 came to 2.8 µM.

These data come from patent US11597702B2, “Substituted pyrazoles FFA4/GPR120 receptor agonists” (AXXAM S.P.A., priority 2018, dated 2023).
